Assay results taken from publication PMC11720353, “Clove Essential Oil as a Source of Antitumoral Compounds Capable of Crossing the Blood–Brain Barrier: A Focus on the Effects of β-Caryophyllene and Eugenol in a Glioblastoma Cell Line” (International Journal of Molecular Sciences, 2024).

Tests used:
Assay type in all cases: cell-based, human
U87 cells [1] = experiment: Quantitative real-time PCR of mRNA levels; conditions: 24 h
Procedure: (§1) An analysis of the genes involved in angiogenesis, tumor progression and proliferation were performed. In particular, we analyzed the genes involved in the cell cycle and in three different apoptotic pathways: B-cell lymphoma-2 (BCL2), Bcl-2-like protein 1 (BCL2L1), Bcl-2 Associated X-protein (BAX), BCL2 Antagonist/Killer 1 (BAK-1) and Caspase 9 (CASP9) as the key genes of the intrinsic mitochondrial pathway; and Phosphatase and tensin homolog (PTEN), Tumor protein p53 (TP53), Murine double minute 2 (MDM2), Cyclin-dependent kinase 4 (CDK4) and Vascular endothelial growth factor A (VEGFA) mRNA levels were assessed by quantitative real-time PCR (qRT-PCR). HMC3 and U87 cells were seeded with a density of 1 × 10^6 cells per well and incubated for 24 h at 37 °C and 5% CO2. Thereafter, the cells were treated either with EU (200 μM) or BCA (125 μM) alone and in combination (EU 200 μM + BCA 125 μM). Total RNA was extracted using the TripleXtractor solution (GRISP, Lisbon, Portugal) according to the manufacturer's protocol. RNA was converted into cDNA through the […] Synthesis Supermix (GRISP, Lisbon, Portugal). Each optimized reaction was performed using […] SYBR Green Mastermix 2X with […], Lisbon, Portugal) and subjected to the amplification protocol described by the manufacturer, using a melting temperature of 60 °C. The relative gene expression was determined by the 2^-ΔΔCt method and normalized on Glyceraldehyde-3-Phosphate Dehydrogenase (GAPDH), which was the endogenous reference and relative to the untreated cells (control condition).

HMC3 cells = experiment: Quantitative real-time PCR of mRNA levels; conditions: 24 h
Procedure: as §1

U87 cells [2] = experiment: Cell death assay (Annexin V/PI, flow cytometry); conditions: EU 200 µM, BCA 125 µM, alone or in combination, 24 h
Procedure: HMC3 and U87 cells were seeded in duplicate into 12-well plates (10 × 10^4 cells/well). After 24 h of incubation at 37 °C and 5% CO2, the medium was replaced, and the cells were treated either with EU (200 µM) or BCA (125 µM), alone and in combination (EU 200 µM + BCA 125 µM). Following the 24 h treatment, the cells were co-stained with AV-APC and PI according to the manufacturer’s protocol (Biolegend, San Diego, CA, USA). Briefly, the cells were resuspended in binding buffer (100 µL) and incubated with AV-APC solution (5 µL) and PI solution (2 µL) for 15 min at room temperature. Then, the cells were diluted in a binding buffer (400 µL). A six-parameter, four-color FACSCalibur flow cytometer (Becton Dickinson, San Jose, CA, USA) was used, and at least 10,000 events were collected by acquisition using CellQuest software (Becton Dickinson, San Jose, CA, USA). The results were analyzed with the Paint-a-Gate software and expressed in percentage (%).

[3] = EU 200 µM, BCA 125 µM, alone or in combination

## C=C1CC/C=C(\C)CC[C@@H]2[C@@H]1CC2(C)C [BCA, β-Caryophyllene]
U87 cells [1]; EU 200 µM or BCA 125 µM
  PTEN mRNA expression, change vs control: +171.8%
U87 cells [1]; [3]
  BAK1 mRNA expression, change vs control: +129.6%
  BAX mRNA expression, change vs control: +35.0%
  BCL2L1 mRNA expression, change vs control: −42.2%
  BCL2 mRNA expression, change vs control: −54.8%
  CASP9 mRNA expression, change vs control: +98.5%
  MDM2 mRNA expression, change vs control: −49.3%
  TP53 mRNA expression, change vs control: +506.4%
  VEGFA mRNA expression, change vs control: −56.5%
U87 cells [1]; EU 200 µM, BCA 125 µM, alone or in combination, normalized to GAPDH
  CDK4 mRNA levels, change vs control: no effects
HMC3 cells; EU 200 µM or BCA 125 µM
  PTEN mRNA expression, change vs control: no effect
HMC3 cells; [3]
  BAK1 mRNA expression, change vs control: +59.8%
  BCL2 mRNA expression, change vs control: −56.2%
  CDK4 mRNA levels, change vs control: no effects
  MDM2 mRNA expression, change vs control: +34.2%
  TP53 mRNA expression, change vs control: +155.5%
  VEGFA mRNA expression, change vs control: −57%
U87 cells [2]
  live (viable) cells, change with respect to control: did not affect
